Reference: ChEMBL document CHEMBL1649420, “Identifying chelators for metalloprotein inhibitors using a fragment-based approach” (J Med Chem, 2011)

Legend:
[1] = biological target: Stromelysin-1 (Homo sapiens) (UniProt P08254); conditions: at 1 mM;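 also: recombinant enzyme, inhibition read after a 30 min incubation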
[2] = biological target: T1, Lethal factor (Bacillus anthracis) (UniProt P15917); conditions: at 1 mM
T1 sequence (whole entry): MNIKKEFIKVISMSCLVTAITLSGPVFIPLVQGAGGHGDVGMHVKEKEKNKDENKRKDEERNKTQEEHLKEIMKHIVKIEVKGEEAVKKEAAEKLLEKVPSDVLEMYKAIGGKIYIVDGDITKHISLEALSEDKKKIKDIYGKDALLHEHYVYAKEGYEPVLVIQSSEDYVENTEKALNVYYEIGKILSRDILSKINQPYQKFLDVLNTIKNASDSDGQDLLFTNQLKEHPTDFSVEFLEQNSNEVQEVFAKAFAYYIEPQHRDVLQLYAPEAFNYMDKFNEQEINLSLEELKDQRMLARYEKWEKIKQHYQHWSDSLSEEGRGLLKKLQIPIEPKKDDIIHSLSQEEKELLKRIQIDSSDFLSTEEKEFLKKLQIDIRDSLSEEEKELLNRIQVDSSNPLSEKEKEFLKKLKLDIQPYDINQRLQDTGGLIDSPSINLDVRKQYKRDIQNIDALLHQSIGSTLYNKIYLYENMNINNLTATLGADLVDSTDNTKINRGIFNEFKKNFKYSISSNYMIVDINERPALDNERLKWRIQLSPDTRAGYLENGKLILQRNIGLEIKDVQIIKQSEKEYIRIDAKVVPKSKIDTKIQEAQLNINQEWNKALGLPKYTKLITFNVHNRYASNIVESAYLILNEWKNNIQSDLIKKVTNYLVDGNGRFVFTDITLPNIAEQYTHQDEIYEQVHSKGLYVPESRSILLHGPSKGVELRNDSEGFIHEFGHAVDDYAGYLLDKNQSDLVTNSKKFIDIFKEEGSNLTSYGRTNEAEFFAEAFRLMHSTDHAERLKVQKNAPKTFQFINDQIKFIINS

[3] = biological target: Matrix metalloproteinase-9 (Homo sapiens) (UniProt P14780); conditions: at 1 mM;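 also: recombinant human MMP9, activity read after 30 min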
[4] = biological target: Neutrophil collagenase (Homo sapiens) (UniProt P22894); conditions: at 1 mM;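 also: recombinant human MMP8 enzyme, percent inhibition read after 30 min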
[5] = biological target: T2, Polyunsaturated fatty acid 5-lipoxygenase (Homo sapiens) (UniProt P09917); assay: Inhibition of human recombinant 5-lipoxygenase at 1 mM after 10 mins by fluorescence assay
T2 sequence (whole entry): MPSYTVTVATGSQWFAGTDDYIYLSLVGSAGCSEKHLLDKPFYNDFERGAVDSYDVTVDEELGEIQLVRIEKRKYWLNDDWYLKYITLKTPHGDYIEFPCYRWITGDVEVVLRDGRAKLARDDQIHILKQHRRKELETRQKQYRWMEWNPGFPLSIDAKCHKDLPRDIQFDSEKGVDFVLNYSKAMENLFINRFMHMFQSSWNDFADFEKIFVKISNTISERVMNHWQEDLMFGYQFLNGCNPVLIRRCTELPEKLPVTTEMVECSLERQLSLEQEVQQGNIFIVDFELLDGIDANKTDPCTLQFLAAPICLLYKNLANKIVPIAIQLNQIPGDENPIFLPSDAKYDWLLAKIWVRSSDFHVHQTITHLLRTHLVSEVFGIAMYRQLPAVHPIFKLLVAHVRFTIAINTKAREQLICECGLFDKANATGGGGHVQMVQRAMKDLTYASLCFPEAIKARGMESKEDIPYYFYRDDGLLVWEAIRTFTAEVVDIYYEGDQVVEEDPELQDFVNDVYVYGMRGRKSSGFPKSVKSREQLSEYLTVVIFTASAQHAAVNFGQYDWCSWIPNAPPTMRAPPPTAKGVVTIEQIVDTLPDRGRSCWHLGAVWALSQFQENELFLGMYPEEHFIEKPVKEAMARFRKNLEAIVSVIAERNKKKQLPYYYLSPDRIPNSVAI

[6] = biological target: 72 kDa type IV collagenase (Homo sapiens, UniProt P08253); conditions: at 1 mM;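 also: recombinant human enzyme, inhibition read after a 30 min incubation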
[7] = biological target: T3, Interstitial collagenase (Homo sapiens) (UniProt P03956); conditions: at 1 mM;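 also: recombinant human enzyme, with inhibition measured after 30 min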
T3 sequence (whole entry): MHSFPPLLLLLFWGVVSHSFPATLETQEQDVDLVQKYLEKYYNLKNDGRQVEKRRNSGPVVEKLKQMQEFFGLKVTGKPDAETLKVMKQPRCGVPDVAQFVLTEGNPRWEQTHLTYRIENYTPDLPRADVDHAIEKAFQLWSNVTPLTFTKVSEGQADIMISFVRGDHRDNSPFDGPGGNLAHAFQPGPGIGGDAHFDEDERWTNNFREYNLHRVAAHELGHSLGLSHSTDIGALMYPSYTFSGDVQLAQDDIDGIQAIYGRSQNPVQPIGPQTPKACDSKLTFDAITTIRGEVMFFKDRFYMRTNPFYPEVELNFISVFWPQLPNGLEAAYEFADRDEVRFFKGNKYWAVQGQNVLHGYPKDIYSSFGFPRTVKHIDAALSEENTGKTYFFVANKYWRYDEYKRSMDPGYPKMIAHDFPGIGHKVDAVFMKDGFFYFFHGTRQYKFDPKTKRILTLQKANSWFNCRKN

[8] = biological target: T4, Nitric oxide synthase, inducible (Mus musculus) (UniProt P29477); conditions: at 1 mM;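 also: recombinant enzyme, activity read out colorimetrically after 40 min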
T4 sequence (whole entry): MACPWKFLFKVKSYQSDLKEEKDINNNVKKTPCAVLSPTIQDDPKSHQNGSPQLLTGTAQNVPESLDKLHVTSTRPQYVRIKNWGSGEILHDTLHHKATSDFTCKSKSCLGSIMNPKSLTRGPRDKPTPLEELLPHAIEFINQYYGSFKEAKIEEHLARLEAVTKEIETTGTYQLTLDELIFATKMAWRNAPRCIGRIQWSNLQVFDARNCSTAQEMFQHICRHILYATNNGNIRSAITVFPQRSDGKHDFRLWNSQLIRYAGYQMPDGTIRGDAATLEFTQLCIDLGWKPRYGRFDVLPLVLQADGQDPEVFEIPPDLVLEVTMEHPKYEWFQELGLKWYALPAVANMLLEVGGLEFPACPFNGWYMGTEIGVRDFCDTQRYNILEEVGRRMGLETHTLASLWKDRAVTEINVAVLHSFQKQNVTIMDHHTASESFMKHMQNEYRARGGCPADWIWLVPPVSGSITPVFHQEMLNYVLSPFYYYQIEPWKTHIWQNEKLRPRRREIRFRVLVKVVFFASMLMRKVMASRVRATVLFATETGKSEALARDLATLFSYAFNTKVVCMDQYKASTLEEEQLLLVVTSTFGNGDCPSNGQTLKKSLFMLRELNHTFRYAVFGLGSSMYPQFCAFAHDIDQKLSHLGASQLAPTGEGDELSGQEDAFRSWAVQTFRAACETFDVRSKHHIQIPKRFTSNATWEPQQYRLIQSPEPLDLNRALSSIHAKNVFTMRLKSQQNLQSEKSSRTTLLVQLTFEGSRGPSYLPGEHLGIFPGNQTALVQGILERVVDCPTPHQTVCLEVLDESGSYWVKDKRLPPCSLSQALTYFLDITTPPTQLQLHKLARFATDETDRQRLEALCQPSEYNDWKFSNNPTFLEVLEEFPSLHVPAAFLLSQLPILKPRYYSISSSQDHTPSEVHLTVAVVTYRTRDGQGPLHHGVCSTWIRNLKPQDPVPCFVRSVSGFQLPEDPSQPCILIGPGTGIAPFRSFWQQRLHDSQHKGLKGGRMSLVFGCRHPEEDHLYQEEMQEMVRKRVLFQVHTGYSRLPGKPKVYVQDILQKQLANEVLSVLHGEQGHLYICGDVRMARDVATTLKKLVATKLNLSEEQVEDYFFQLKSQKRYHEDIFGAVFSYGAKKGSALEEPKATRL

[9] = biological target: T5, Tyrosinase (Agaricus bisporus) (UniProt O42713); conditions: at 1 mM;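 also: inhibition measured at 10 min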
T5 sequence (whole entry): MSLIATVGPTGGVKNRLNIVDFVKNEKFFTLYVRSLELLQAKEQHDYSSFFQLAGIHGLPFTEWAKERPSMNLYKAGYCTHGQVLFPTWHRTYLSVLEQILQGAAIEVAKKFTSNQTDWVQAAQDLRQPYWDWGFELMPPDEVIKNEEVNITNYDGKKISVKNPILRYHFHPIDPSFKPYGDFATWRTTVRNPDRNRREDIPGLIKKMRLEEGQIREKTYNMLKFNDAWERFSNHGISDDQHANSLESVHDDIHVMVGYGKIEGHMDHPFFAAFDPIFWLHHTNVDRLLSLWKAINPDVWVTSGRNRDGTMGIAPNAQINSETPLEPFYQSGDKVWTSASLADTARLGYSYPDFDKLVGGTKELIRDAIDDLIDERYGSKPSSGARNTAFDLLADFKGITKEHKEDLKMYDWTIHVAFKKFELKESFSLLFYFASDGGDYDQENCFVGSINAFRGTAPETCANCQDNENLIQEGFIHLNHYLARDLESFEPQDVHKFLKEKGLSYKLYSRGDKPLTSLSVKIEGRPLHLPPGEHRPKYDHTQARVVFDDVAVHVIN

Chain of Matrix metalloproteinase-9 (Homo sapiens) (P14780 whole entry): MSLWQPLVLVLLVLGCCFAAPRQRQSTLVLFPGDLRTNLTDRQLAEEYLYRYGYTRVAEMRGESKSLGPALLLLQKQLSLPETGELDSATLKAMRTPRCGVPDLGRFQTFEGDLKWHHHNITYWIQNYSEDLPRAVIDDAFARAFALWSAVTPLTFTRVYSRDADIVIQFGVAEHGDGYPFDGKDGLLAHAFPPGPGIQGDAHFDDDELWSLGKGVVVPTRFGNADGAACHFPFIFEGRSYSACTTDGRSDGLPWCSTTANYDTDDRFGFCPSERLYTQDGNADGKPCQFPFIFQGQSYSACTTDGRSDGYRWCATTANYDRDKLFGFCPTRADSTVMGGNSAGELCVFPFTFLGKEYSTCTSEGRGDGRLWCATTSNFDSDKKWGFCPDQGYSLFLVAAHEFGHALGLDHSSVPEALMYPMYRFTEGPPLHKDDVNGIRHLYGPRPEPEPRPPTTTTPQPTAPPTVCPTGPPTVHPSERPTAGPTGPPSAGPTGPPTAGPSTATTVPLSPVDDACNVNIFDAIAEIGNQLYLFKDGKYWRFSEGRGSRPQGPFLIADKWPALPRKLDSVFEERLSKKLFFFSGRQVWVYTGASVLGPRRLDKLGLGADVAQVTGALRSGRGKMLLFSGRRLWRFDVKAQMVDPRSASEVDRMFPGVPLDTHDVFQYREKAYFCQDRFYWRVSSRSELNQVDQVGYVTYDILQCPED
Chain of Neutrophil collagenase (Homo sapiens) (P22894 101-467 limits assumed): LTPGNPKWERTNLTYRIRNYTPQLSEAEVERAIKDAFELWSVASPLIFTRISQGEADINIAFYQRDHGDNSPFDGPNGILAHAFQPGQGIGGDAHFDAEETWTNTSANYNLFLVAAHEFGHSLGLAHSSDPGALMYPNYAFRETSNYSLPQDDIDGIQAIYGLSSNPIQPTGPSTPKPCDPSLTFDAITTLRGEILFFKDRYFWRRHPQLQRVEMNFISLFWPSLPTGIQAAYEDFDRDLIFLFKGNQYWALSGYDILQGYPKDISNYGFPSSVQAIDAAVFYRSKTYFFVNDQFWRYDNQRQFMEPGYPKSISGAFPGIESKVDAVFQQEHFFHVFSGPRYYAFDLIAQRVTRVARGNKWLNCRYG
Chain of 72 kDa type IV collagenase (P08253 110-660 limits assumed): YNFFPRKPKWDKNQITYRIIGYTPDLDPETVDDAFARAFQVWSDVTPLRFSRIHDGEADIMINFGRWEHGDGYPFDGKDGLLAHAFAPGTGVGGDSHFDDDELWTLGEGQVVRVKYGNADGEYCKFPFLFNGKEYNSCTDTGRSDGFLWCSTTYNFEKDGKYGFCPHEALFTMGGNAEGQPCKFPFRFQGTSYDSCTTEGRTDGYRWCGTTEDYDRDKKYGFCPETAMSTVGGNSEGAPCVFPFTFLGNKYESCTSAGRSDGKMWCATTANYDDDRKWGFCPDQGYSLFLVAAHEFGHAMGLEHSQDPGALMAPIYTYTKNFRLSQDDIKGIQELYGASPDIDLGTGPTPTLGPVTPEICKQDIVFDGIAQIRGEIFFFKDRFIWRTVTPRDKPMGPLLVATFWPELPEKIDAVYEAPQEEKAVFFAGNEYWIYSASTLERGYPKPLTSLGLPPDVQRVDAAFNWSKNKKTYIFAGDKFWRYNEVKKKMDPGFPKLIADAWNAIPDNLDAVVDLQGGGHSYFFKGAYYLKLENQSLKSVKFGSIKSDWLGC
Chain of Stromelysin-1 (Homo sapiens) (P08254 100-477 limits assumed): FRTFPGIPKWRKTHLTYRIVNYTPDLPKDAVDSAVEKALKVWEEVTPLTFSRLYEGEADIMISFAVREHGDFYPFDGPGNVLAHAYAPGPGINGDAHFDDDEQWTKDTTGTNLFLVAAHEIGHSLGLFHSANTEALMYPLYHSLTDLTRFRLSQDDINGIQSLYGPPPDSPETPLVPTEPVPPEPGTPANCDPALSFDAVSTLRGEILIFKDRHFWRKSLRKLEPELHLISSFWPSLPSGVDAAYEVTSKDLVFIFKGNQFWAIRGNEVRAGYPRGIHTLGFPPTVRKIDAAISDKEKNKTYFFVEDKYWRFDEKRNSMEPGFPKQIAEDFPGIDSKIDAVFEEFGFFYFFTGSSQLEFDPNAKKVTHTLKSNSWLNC

Row | SMILES | inhibition [1] [%] | inhibition [2] [%] | inhibition [3] [%] | inhibition [4] [%] | inhibition [5] [%] | inhibition [6] [%] | inhibition [7] [%] | inhibition [8] [%] | inhibition [9] [%]
1 | Oc1ccccc1O | 1 | 47 | 10 | 31 | 89 | 10 | 25 | 28 | –
2 | OCc1ccnc(-c2cc(CO)ccn2)c1 | 96 | 9 | 58 | 100 | 41 | 77 | 72 | 21 | –
3 | COc1ccccc1O | -4 | 13 | -6 | 4 | 60 | -5 | 8 | 13 | –
4 | CCc1c(O)c(=O)ccn1C | 20 | 4 | 13 | 34 | 78 | 32 | 34 | 1 | –
5 | O=C(O)c1ccc(O)cc1O | 3 | 7 | -8 | -1 | – | -7 | 14 | 16 | 91
6 | O=C(O)c1ccc2cccc(O)c2n1 | 94 | 89 | 68 | 88 | – | 84 | 82 | 29 | 75
7 | CC(C)c1cccc(=O)c(O)c1 | 98 | 66 | 99 | 100 | – | 90 | 95 | 18 | 54
8 | CCc1occc(=O)c1O | 38 | 25 | 28 | 34 | – | 33 | 39 | 8 | -7
9 | O=C(O)c1cccc(=O)n1O | 86 | 47 | 66 | 89 | – | 60 | 84 | -5 | 94
10 | O=C(O)c1ccc2ccccc2n1 | 73 | 45 | 37 | 29 | – | 37 | 52 | 11 | 58
11 | Cc1ccc2cccc(O)c2n1 | 71 | 44 | 34 | 63 | 59 | 65 | 47 | 7 | –
12 | O=c1cc(CO)occ1O | 62 | 33 | 49 | 51 | 84 | 52 | 59 | -4 | –
13 | c1cnc2c(c1)ccc1cccnc12 | 91 | 67 | 86 | 100 | 4 | 100 | 71 | 30 | –
14 | NC(=O)c1ccccc1O | 1 | 0 | 23 | 24 | – | -1 | 21 | 14 | -8
15 | CCc1c(O)c(=O)ccn1CC | 9 | – | 15 | 31 | 83 | 17 | 25 | 8 | –
16 | Cc1cc(=O)c(O)c(CO)o1 | 47 | 14 | 44 | 53 | – | 45 | 60 | 9 | 11
17 | Cc1occc(=O)c1O | 34 | 19 | 32 | 19 | – | 38 | 41 | 6 | -6
